Measured values taken from article PMC8308625, “Preclinical Studies in Anti-Trypanosomatidae Drug Development” (Pharmaceuticals, 2021).
Read-outs that look alike come from different tables or passages of the source.

Key:
[1] = test system: T. brucei; assay: Growth inhibition of T. brucei bloodstream form trypomastigotes (resazurin); assay type: cell-based, Trypanosoma brucei brucei; conditions: for EC50: Trypanosoma brucei, read-out: EC50 ± SD T. brucei
Method: Compounds were dissolved in dimethylsulfoxide (DMSO).

[2] = test system: L. infantum reference strain (MHOM/BR/2002/LPC-RPV); assay: Growth inhibition of L. infantum reference strain promastigotes (resazurin); conditions: for Selectivity Index MΦ/Lin–Ref: EC50 mammalian cell line/EC50 L. infantum reference strain; for EC50: Leishmania infantum, read-out: EC50 ± SD Lin–Ref
[3] = test system: Cruzipain; conditions: mechanism of action; ref [13],[14],[15]; cited from earlier work
[4] = cited from earlier work; for Ames Test (mutagenicity): ref [13],[14],[15]
[5] = test system: L. amazonensis; assay: Murine model of cutaneous Leishmaniasis; conditions: BALB/c mice, oral
Method: For the in vivo model of cutaneous disease, 1 × 10^7 amastigote parasites of L. amazonensis PH8 were inoculated in the upper part of the left paw of the mice. […] The mice were sacrificed 30 days post-infection. The antiparasitic effect was evaluated by two methods: the weekly evolution of the diameter of the infected paw throughout the experiment (Figure 2C) and the quantification of the parasite load in the infected area at the end of the experiment (Figure 2A).
Golden hamsters (Mesocritus auratus) were used to maintain L. amazonensis infections with the parasites passage every 6 to 8 weeks. BALB/c mice (female and male) supplied by the IFFA-CREDO, Lyon, France, and bred at the Instituto de Investigaciones en Ciencias de la Salud, Asuncion, Paraguay, were inoculated in the right hind footpad with 2 × 10^6 L. amazonensis amastigotes in 100 µL PBS obtained from donor hamsters. Disease progression was monitored by the measurement of lesion diameters for 7 to 12 weeks. […] Two days before the administration of the drug, the mice were randomly divided into groups of eight. […] The animals were euthanized two weeks after cessation of treatments to assess parasitological loads in the infected footpad. […] Following incubation at 27 °C for seven days, cultures were examined with an inverted microscope (Olympus, Tokyo, Japan) at a magnification of ×400. The number of parasites per gram in the lesion was calculated by the following equation: Parasite burden = geometric mean of the number of parasites in each duplicate/(number of microscope field counted × weight of lesion × (25,000) hemocytometer correction factor) [37]. […] Comparisons of parasite suppression in the infected footpads of the untreated and drug-treated groups were performed by Student’s t-test. One-way ANOVA (as a non-parametric statistical test) was also used on ranks.

[6] = test system: fibroblasts (NCTC929); assay: Cytotoxicity in fibroblasts; assay type: cell-based; conditions: NCTC-929, read-out: EC50 ± SD Fibroblasts
Text: Table 5 Cytotoxicity and selectivity index of reference drugs and selected molecules. | column: EC50 ± SD (µM) ^a / Fibroblasts

[7] = test system: human red blood cells; assay: Red Blood Cell Lysis Assay; assay type: cell-based; conditions: 50 µM
Method: To assess a compound’s hemolytic activity the Red Blood Cell Lysis Assay (national blood bank) was performed. A compound-containing erythrocyte (2% (w/v)) suspension prepared in phosphate-buffered saline pH 7.4 was incubated for 24 h at 37 °C and the amount of hemoglobin released into the supernatant determined spectrophotometrically using a Varioskan TM Flash Multimode Reader (Thermo ScientificTM, MA, USA) set to a wavelength of 405 nm. The % hemolysis was determined using the follows equation: % released hemoglobin = [(A1 − A0)/(A1water)] × 100, where A1 and A0 represent the absorbance at 405 nm of the test sample at 0 and 24 h, and A1water the absorbance at 405 nm of water at 24 h. The experiments were performed by quintuplicate. […]

[8] = test system: T. cruzi; design: method as in PMID 31652542; conditions: mice, ref [16], cited from earlier work
[9] = test system: L. infantum amastigote; assay: Single dose study in the amastigote form of L. infantum; assay type: cell-based; conditions: Leishmania infantum, single dose 10 µM
[10] = test system: L. infantum veterinary isolate (MCAN_UY_2015_gPL8); assay: Growth inhibition of L. infantum veterinary isolate promastigotes (resazurin); conditions: for Selectivity Index MΦ/Lin–Vet: EC50 mammalian cell line/EC50 L. infantum veterinary isolate; for EC50: Leishmania infantum, read-out: EC50 ± SD Lin–Vet
[11] = mice, up and down test, cited from earlier work
[12] = test system: human macrophages; assay: Cytotoxicity in human macrophages; assay type: cell-based; conditions: 50 µM
Method: Differentiation of THP-1 to produce macrophage-like cells was carried out using phorbol 12-myristate-13-acetate (Sigma-Aldrich, Deisenhofen, Germany).
All assays were performed in triplicate.

[13] = design: method as in PMID 24749923, PMID 26492824, PMID 25512408; conditions: ref [13],[14],[15]; cited from earlier work
[14] = test system: T. cruzi; conditions: cited from earlier work
[15] = cited from earlier work
[16] = test system: J774.1 murine macrophages; assay: Nonspecific cytotoxicity in murine macrophages (MTT); conditions: Mus musculus, J774.1, read-out: EC50 ± SD MΦ
Method: Cell viability was then assessed using the 3-(4,5-dimethylthiazol-2-yl)-2,5-diphenyltetrazolium bromide (MTT) colorimetric assay [1]. […] All assays were performed in triplicate [35].

[17] = test system: L. braziliensis; conditions: read-out: EC50 ± SD L. brazils, cited from earlier work
[18] = test system: L. amazonensis; assay: Growth inhibition of L. amazonensis promastigotes (resazurin); conditions: for Selectivity Index MΦ/L. amaz: EC50 mammalian cell line/EC50 L. amazonensis; for EC50: Leishmania amazonensis, read-out: EC50 ± SD L. amaz
[19] = Acute oral toxicity (up and down test); conditions: mice
[20] = biological target: T1, Triosephosphate isomerase from L. mexicana (LmTIM) (Leishmania mexicana, UniProt P48499); assay: LmTIM inactivation; assay type: biochemical
T1 construct: made in house; host or cells: Escherichia coli
Method: (§1) Table S3. Activity of compound 796 in Triosephosphate isomerase from L. mexicana (LmTIM) […]
(§2) Expression and purification of proteins: TbTIM, LmTIM were expressed in Escherichia coli and purified as described in the literature. After purification, the enzyme, disolved in 100 mM triethanolamine, 10 mM EDTA and 1 mM dithiothreitol (pH 8), was precipitated with ammonium sulfate (75% saturation) and stored at 4 _C. Before use, extensive dialysis against 100 mM triethanolamine/10 mM EDTA (pH 7.4) was performed. Protein concentration was determined by absorbance at 280 nm (ε= 36,440 M-1cm-1) TbTIM and LmTIM. Enzymatic activity assays: Enzymatic activity was determined following the conversion of glyceraldehyde 3‐phosphate into dihydroxyacetone phosphate. The decrease in absorbance at 340 nm was followed in a multi‐cell Cary spectrophotometer at 25 °C. The reaction mixture (1 mL, pH 7.4) contained 100 mM triethanolamine, 10 mM EDTA, 0.2 mM NADH, 1 mM glyceraldehyde 3‐phosphate and 0.9 units of _‐glycerol phosphate dehydrogenase. The reaction was initiated by the addition of 5 ng/mL of the TbTIM. For the inhibition studies, TcTIM, LmTIM and TbTIM were incubated at a concentration of 5 mg/mL in a buffer containing 100 mM triethanolamine, 10 mM EDTA, pH 7.4 and 10% of DMSO at 36 _C. The mixture also contained the compounds at the indicated concentrations. Compounds were dissolved in DMSO. […]

[21] = Liver fraction stability (cytosolic and microsomal fraction of rat hepatocytes, TLC); assay type: in vitro ADME; conditions: rat hepatocyte cytosolic and microsomal fractions, 37 °C
Method: For the determination of the stability in the different fractions, (cytosolic and microsomal of rat hepatocytes) the different proteins present in them were used. The fractions were prepared according to the previously reported protocol. […] The final concentration of the molecules in the aqueous medium was 400 µM and prepared from a stock in DMSO of 40 mM. The solutions were homogenized and incubated at 37 °C at 10 min, 30 min, 1 h, 2 h, 3 h and 4 h. (by TLC). For this, it was incubated at 37 °C in a volume of 1 mL: 2.5 µL of 30 mM Magnesium Chloride (MgCl); 2.5 µL of 40 mM Nicotinamide Adenosine Dinucleotide Phosphate (NADP+); 5 µL of 350 mM Glucose 6- Phosphate (Glu6P); 5 µL of Glucose 6- phosphate dehydrogenase (Glu6PD) 50 U/mL, 5 µL of the stock of 40 mM compounds and the volume of the Phosphate Buffer (pH = 7) must be such that cytosolic (CF) and microsomal (MF) fraction FC and FM present a final protein concentration of 0.1 mg/mL. After that, the stability of compounds 796 and 1019 in the cytosolic (FCF) and microsomal (FMF) fraction of rat hepatocytes was evaluated at different times (1–4 h). Thin-layer chromatography of ethyl acetate extracts was conducted to evaluate the presence of decomposition products. The mobile phase used for these TLCs was n-hexane: ethyl acetate (7: 3).

[22] = biological target: T2, Triosephosphate isomerase from T. brucei (TbTIM) (Trypanosoma brucei brucei, UniProt P04789); assay: TbTIM inactivation; assay type: biochemical
T2 construct: made in house; host or cells: Escherichia coli
Method: as §1, §2

[23] = in vivo; conditions: male, B6D2F1, mouse, po, 2000 mg/kg
[24] = biological target: triosephosphate isomerase; conditions: mechanism of action; ref [13],[14],[15]; cited from earlier work
[25] = Table 4, curcuminoids, ref [14], read-out: EC50 ± SD T. cruzi
[26] = epimastigotes, multiple strains, ref [13],[14],[15], read-out: EC50 in vitro anti-T. cruzi, epimastigotes
[27] = Table 4, curcuminoids, ref [14]

T2 sequence (P04789 whole entry): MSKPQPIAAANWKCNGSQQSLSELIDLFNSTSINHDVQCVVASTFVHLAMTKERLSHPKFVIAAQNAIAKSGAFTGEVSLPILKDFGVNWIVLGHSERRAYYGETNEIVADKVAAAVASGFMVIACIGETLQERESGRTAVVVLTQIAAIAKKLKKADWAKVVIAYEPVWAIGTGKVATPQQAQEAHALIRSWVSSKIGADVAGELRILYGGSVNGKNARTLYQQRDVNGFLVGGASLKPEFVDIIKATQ
T1 sequence (P48499 whole entry): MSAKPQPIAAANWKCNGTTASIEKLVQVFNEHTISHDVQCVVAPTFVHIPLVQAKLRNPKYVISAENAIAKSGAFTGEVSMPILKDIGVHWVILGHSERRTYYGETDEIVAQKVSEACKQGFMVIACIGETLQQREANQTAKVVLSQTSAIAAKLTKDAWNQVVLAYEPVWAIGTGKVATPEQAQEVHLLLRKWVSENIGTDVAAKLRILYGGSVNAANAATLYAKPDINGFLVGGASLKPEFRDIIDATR

| SMILES | Selectivity Index MΦ/Lin–Ref [2] | EC50 [2] [µM] | Ames Test (mutagenicity) [4] | EC50 [6] [µM] | cytotoxicity in human red blood cells [7] | inhibition at 10 µM [9] [%] | Selectivity Index MΦ/Lin–Vet [10] | EC50 [10] [µM] | cytotoxicity in human macrophages [12] | Stability in vitro (microsomal, plasma, other solutions) [13] | EC50 [16] [µM] | Selectivity Index MΦ/L. amaz [18] | EC50 [18] [µM] | survival in the acute toxicity model in vivo [19] [%] | EC50 [14, 25] [µM] | EC50 [14, 26] [µM] | EC50 [17, 27] [µM] | also measured |
| --- | --- | --- | --- | --- | --- | --- | --- | --- | --- | --- | --- | --- | --- | --- | --- | --- | --- | --- |
| C=CCn1c(C(=O)N2CCN(C/C=C/c3ccccc3)CC2)cs\c1=N/N=C/C=C/c1ccco1 [Compound 314] | 23 | 1.3 ± 0.5 | No | 346 ± 9 | did not see any inhibition | 85 | 12 | 2.5 ± 1 | did not see any inhibition | High | 30 ± 5 | 3 | 12 ± 5 | 100 |  |  |  | EC50 ([1]; Table 3, thiazolidene hydrazines): 5 ± 1 µM; IC50 [3]: 4.3 µM; AMES test, mutagenic capacity ([4]; previous works, ref [13],[16]): negative; leishmanicidal activity in vivo ([5]; half the dose of 796): low; reduction of parasitemia ([8]; oral, same dose as in the Leishmaniasis in vivo assay): more than 60%; survival ([8]; mean 60% survival in untreated group): 100%; acute toxicity LD50 ([11]; previously evaluated, ref [13],[16]): > 2000 mg/kg of weight; Acute oral toxicity LD50 ([11]; ref [13],[14],[15]): ^d LD50 > 2000 mg/kg in mice; EC50 ([14]; Table 3, thiazolidene hydrazines, ref [13],[16],[19],[23],[25], read-out: EC50 ± SD T. cruzi): 3.1 ± 0.2 µM; EC50 ([14]; amastigotes, multiple strains, ref [13],[14],[15], read-out: EC50 in vitro anti-T. cruzi, amastigotes): 0.72 µM; micronucleus test, genotoxicity ([15]; previous works, ref [13],[16]): not genotoxic; Micronucleus test in mice (Genotoxicity) ([15]; ref [13],[14],[15]): No; EC50 ([17]; Table 3, thiazolidene hydrazines, ref [13],[16],[19],[23],[25]): 4 ± 1 µM |
| O=C(/C=C/c1cccs1)/C=C/c1cccs1 [Compound 796] | 10 | 4 ± 0.5 |  | 158 ± 5 | did not see any inhibition | 90 | 4 | 10 ± 2 | did not see any inhibition | moderate | 38 ± 7 | 5 | 8 ± 2 | 100 | 5 ± 0.8 | 5 | 4 ± 0.5 | Media Mn/Mouse ± SD (male, CD-1, mouse, in vivo, 150 mg/kg): 5 ± 1; Number EPMn (total polychromatic micronucleated erythrocytes in the 5 assays) (mice, 796 150 mg/kg oral, Cyclophosphamide intraperitoneal positive control, 5000 EPC observed): 21; EC50 ([1]; Table 4, curcuminoids): 0.6 ± 0.1 µM; inhibition at 50 µM [20]: 42.5%; % of suppression of the parasites ([5]; parasite load in lesion, 796 at 203 µmol/kg, other molecules at half that dose): more than 50%; diameter of the paw ([5]; when treatment begins (Figure 2C)): begins to decrease; metabolic stability: time compound detected / degraded [21]: ≥ 4 h; inhibition at 50 µM [22]: 61%; LD50 at 14 days [23]: > 2000 mg/kg |
| O=C1/C(=C/C=C/c2ccco2)CCC/C1=C\C=C\c1ccco1 [Compound 1019] |  | < 0.3 | no |  |  |  |  |  |  | low |  |  | 7 ± 1 |  | 0.6 ± 0.2 | 0.6 | 13 ± 7 | trypanosomicidal effect on T. brucei [1]: no trypanosomicidal effect; IC50 [24]: 0.086 µM; growth inhibitory / trypanosomicidal effect on the L. infantum canine-derived isolate [10]: no trypanosomicidal effect |
